Results: patent US20060079453A1, “Hla binding peptides and their uses” (priority 2002, published 2006)
No end group written: not given here.

Tests used:
Experiment in all cases: biochemical
Type in all cases: binding
[1] = molecular target: HLA-DR DRB1*0101 (DR1) (Homo sapiens, UniProt P01903+P01911, A100R/D57E/F55L/F60I/F76Y/I96L/L162R/M171V/P40L/Q125E/R42F/V115G/Y59C); details: DRB1 *0101
[2] = molecular target: HLA-DR DRB1*0301 (DR3) (Homo sapiens, UniProt P01903+P01911, A100K/A102G/A103R/A169T/F55Y/I96L/K41T/L162R/M171V/P40S/Q125H/Q178H/Q39Y/R42S/S66N/T106N/T262R/W38E/Y61H)
Sequence of HLA-DR DRB1*0301 (DR3) (P01903 26-254 limits assumed, other chains not shown): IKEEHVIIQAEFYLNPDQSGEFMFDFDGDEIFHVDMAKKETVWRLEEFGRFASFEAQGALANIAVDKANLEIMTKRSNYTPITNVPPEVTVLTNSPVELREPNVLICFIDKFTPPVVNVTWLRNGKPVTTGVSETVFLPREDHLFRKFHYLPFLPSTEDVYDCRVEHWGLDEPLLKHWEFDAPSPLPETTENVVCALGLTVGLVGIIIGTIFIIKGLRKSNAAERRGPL

[3] = molecular target: HLA-DR DRB1*0401 (DR4) (Homo sapiens, UniProt P01903+P01911, A100K/A169T/F76Y/I96L/K127E/L162R/M171V/N62H/P40V/Q125Y/R42H/S133A/S149N/S66Y/V115G/V209L/W38E); details: DRB1 *0401
[4] = molecular target: HLA-DR DRB1*0405 (DR4) (Homo sapiens, UniProt P01903+P01911, A100R/A169T/D86S/F76Y/I96L/K127E/L162R/M171V/N62H/P40V/Q125Y/R42H/S133A/S149N/S66Y/V115G/V209L/W38E); details: DRB1 *0405
[5] = molecular target: HLA-DR DRB1*0701 (DR7) (Homo sapiens, UniProt P01903+P01911, A100R/A102G/A103Q/D57E/D86V/E43K/F76Y/K127E/L162R/M171V/P40G/Q125H/Q99D/R33Q/R42Y/R54Q/S133A/S66F/T210M/V115G/Y107V/Y59L/Y89S); details: DRB1 *0701
[6] = molecular target: HLA-DR DRB1*0802 (DR8) (Homo sapiens, UniProt P01903+P01911, A100R/A103L/A169T/F76Y/H45Y/I96F/K41T/L162R/M171V/P40S/Q125H/Q178H/Q39Y/Q99D/R218S/R42G/S66Y/V115G/W38E)
[7] = molecular target: HLA-DR DRB1*0901 (DR9) (Homo sapiens, UniProt P01903+P01911, A100R/A103E/D57H/D86V/F55Y/F60I/F76Y/I96F/K127E/L162R/M171V/P40D/Q125H/Q99R/R33Q/R42F/S133A/S66N/T210M/V115G/W38K/Y107V/Y59G/Y89S); details: DRB1 *0901
[8] = molecular target: HLA-DR DRB1*1101 (DR11) (Homo sapiens, UniProt P01903+P01911, A100R/A169T/A87E/I96F/K41T/L162R/M171V/P40S/Q125H/Q178H/Q39Y/Q99D/R42S/S66Y/T262R/V115G/W38E); details: DRB1 *1101
Sequence of HLA-DR DRB1*1101 (DR11) (P01903 26-254 limits assumed, other chains not shown): as above

[9] = molecular target: HLA-DR DRB3*0101 (DR52) (Homo sapiens, UniProt P01903+P79483)
[10] = molecular target: HLA-DR DRB4*0101 (DR53) (Homo sapiens, UniProt P01903+P13762, G164S); details: DRB4 *0101
[11] = molecular target: HLA-DR DRB5*0101 (DR51) (Homo sapiens, UniProt P01903+Q30154); details: DRB5 *0101
[12] = molecular target: HLA-DR DRB1*1302 (DR13) (Homo sapiens, UniProt P01903+P01911, A100E/A169T/K41T/L162R/M171V/P40S/Q125H/Q178H/Q39Y/Q99D/R42S/S66N/T262R/V115G/W38E/Y61H); details: DRBI *1302
Sequence of HLA-DR DRB1*1302 (DR13) (P01903 26-254 limits assumed, other chains not shown): as above

[13] = molecular target: HLA-DR DRB1*1501 (DR15) (Homo sapiens, UniProt P01903+P01911); details: DRBI *1501

| Sequence | IC50 [1] [nM] | IC50 [2] [nM] | IC50 [3] [nM] | IC50 [4] [nM] | IC50 [5] [nM] | IC50 [6] [nM] | IC50 [7] [nM] | IC50 [8] [nM] | IC50 [9] [nM] | IC50 [10] [nM] | IC50 [11] [nM] | IC50 [12] [nM] | IC50 [13] [nM] |
| --- | --- | --- | --- | --- | --- | --- | --- | --- | --- | --- | --- | --- | --- |
| VEALYLVTGERGFFY | 9.9 | 2010 | 60 | 2340 | 195 | 1220 | 683 | 4860 | 17200 | 13 | 78 |  |  |
| AVTIYEMLQNIFAIF | 17 | 23700 |  | 163 |  | 6870 | 4540 | 29700 | 2830 | 1120 | 14000 | 109 |  |
| LFFYRKSVWSKLQSI | 19 | 30200 | 913 | 84 | 84 | 65 |  | 12 | 5910 | 1930 | 18 | 121 | 20 |
| GSHLVEALYLVTGER | 645 | > 176000 | 15800 | 14400 | 553 | > 54400 | > 63000 | > 10500 | 18200 | 225 | 11400 | 12200 |  |
| KLSQELHKLQTYPRT | 19 | 197000 | 19700 | 12200 | 85500 | 28700 | 19100 | 2380 | > 263000 | 870 | 37 | > 12600 |  |
| NSLVYGASDSNIYDL |  | > 51400 | 240 | 1230 | 297 | > 33300 | > 59500 | > 15400 | 31600 | 3290 | > 9510 |  | 971 |
